Laboratory results taken from patent US8658638B2, “Mineralocorticoid receptor antagonist and methods of use” (priority 2009, dated 2014).

Target: T1, human androgen receptor (AR) (Homo sapiens, UniProt P10275)
T1 sequence (P10275 1-920): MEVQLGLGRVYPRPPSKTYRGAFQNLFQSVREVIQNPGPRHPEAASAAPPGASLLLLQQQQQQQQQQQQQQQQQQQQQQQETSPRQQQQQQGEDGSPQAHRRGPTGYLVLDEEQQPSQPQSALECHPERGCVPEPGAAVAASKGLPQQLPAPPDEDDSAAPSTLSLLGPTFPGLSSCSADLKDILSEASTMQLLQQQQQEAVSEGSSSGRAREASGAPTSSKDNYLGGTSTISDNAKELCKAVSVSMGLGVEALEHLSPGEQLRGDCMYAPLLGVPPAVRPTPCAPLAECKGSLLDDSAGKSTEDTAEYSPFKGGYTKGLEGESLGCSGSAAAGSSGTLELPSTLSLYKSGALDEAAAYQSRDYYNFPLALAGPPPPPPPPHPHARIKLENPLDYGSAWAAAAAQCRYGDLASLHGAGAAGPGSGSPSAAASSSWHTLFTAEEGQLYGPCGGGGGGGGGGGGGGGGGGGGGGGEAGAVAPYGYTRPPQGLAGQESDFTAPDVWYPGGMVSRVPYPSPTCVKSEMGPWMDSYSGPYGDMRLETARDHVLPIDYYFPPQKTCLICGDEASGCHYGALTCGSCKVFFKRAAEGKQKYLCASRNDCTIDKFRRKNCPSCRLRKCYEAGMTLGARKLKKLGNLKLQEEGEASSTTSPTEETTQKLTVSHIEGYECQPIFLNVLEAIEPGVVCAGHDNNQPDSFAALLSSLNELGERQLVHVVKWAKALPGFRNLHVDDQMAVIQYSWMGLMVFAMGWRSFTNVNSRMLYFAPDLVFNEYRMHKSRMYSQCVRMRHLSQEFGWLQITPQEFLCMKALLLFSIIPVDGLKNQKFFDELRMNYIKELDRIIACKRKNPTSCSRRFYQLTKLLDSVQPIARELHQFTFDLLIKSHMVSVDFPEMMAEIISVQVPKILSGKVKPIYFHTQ
Experiment: Nuclear hormone receptor panel screen (luciferase reporter, HEK293), AR
Type: cell-based
Excerpt: Aldosterone exerts it physiological effects through interaction with the mineralocorticoid receptor. Following cytoplasmic binding of aldosterone to MR, the ligand receptor complex translocates to the cell nucleus where it binds to hormone response elements on DNA to initiate expression of target genes. […] The solvents, reagents, and ligands employed in the functional assay are readily available from commercial sources, or can be prepared by one of ordinary skill in the art.
Human embryonic kidney HEK293 cells are transfected with steroid hormone receptor and reporter gene plasmids using a suitable transfection reagent such as Fugene™. […] After 24 hours incubation with test compounds, cells are lysed and luciferase activity is determined using standard techniques.
Data are fitted to a four parameter-fit logistic curve to determine EC50 values. […] IC50 values are determined similarly using antagonist mode assay data. In the antagonist mode, percent inhibitions are determined by comparing test compound activity in the presence of low concentration of agonist (0.08 nM aldosterone for MR, 0.25 nM dexamethasone for GR, 0.66 nM of methyltrienolone for AR, and 0.08 nM of promegestone for PR) to the response produced by the same low concentration of agonist in the absence of test compound.

For `O=c1[nH]c2cc(/C=C3\c4ccccc4COc4cc(F)ccc43)ccc2n1[C@@H]1C[C@@H]2COCCN2C1` [Compound (I), 5-((E)-(3-fluorodibenzo[b,e]oxepin-11(6H)-ylidene)methyl)-1-((7R,8aR)-hexahydro-1H-pyrrolo[2,1-c][1,4]oxazin-7-yl)-1H-benzo[d]imidazol-2(3H)-one], the EC50 (agonist mode) was > 10 µM and the IC50 (antagonist mode, 0.66 nM methyltrienolone) was > 10 µM.
